According to patent US9695155B2, “Herbicidal substituted pyrimidinyloxy benzene compounds” (E. I. DU PONT DE NEMOURS AND COMPANY, priority 2013, dated 2017):

Key:
deadnettle = assay: Test D preemergence; type: in vivo, Lamium amplexicaule
Method in brief: (§1)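 After treatment, visual injury versus untreated plants, 0–100 scale, assessed at 7 to 21 days. Applications were made preemergence to silt loam-sown seed and postemergence to seedlings 2–18 cm high in potting medium.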

kochia = assay: Test D preemergence; type: in vivo, Kochia scoparia
Method in brief: as §1

Russian thistle = assay: Test D preemergence; type: in vivo, Salsola kali; parameters: key: 0 = no effect, 100 = complete control
Text: Seeds of plant species selected from bluegrass (annual bluegrass, Poa annua), blackgrass (Alopecurus myosuroides), canarygrass (littleseed canarygrass, Phalaris minor), chickweed (common chickweed, Stellaria media), galium (catchweed bedstraw, Galium aparine), bromegrass, downy (downy bromegrass, Bromus tectorum), field poppy (Papaver rhoeas), field violet (Viola arvensis), green foxtail (Setaria viridis), deadnettle (henbit deadnettle, Lamium amplexicaule), Italian ryegrass (Lolium multiflorum), kochia (Kochia scoparia), lambsquarters (Chenopodium album), oilseed rape (Brassica napus), pigweed (Amaranthus retroflexus), chamomile (scentless chamomile, Matricaria inodora), Russian thistle (Salsola kali), speedwell (bird's-eye speedwell, Veronica persica), spring barley (Hordeum vulgare), spring wheat (Triticum aestivum), wild buckwheat (Polygonum convolvulus), wild mustard (Sinapis arvensis), wild oat (Avena fatua), wild radish (Raphanus raphanistrum), windgrass (Apera spica-venti), winter barley (Hordeum vulgare), and winter wheat (Triticum aestivum) were planted into a silt loam soil and treated preemergence with test chemicals formulated in a non-phytotoxic solvent mixture which included a surfactant.
At the same time, these species were planted in pots containing Redi-Earth® planting medium (Scotts Company, 14111 Scottslawn Road, Marysville, Ohio 43041) comprising spaghnum peat moss, vermiculite, wetting agent and starter nutrients and treated with postemergence applications of the test chemicals formulated in the same manner. Plants ranged in height from 2 to 18 cm (1- to 4-leaf stage). Treated plants and controls were maintained in a controlled growth environment for 7 to 21 days after which time all species were compared to controls and visually evaluated. Plant response ratings, summarized in Table D, are based on a scale of 0 to 100 where 0 is no effect and 100 is complete control. A dash (-) response means no test result.

canarygrass = assay: Test D postemergence; type: in vivo, Phalaris minor
Method in brief: as §1

field poppy = assay: Test D postemergence; type: in vivo, Papaver rhoeas
Method in brief: as §1

lambsquarters = assay: Test D postemergence; type: in vivo, Chenopodium album
Method in brief: as §1

spring barley = assay: Test D postemergence; type: in vivo, Hordeum vulgare
Method in brief: as §1

winter barley = assay: Test D postemergence; type: in vivo, Hordeum vulgare
Method in brief: as §1

wild oat = assay: Test D postemergence; type: in vivo, Avena fatua
Method in brief: as §1

[1] = 16 g ai/ha, scale 0 (no effect) to 100 (complete control)
[2] = 31 g ai/ha, scale 0 to 100 (0 no effect, 100 complete control)
[3] = 62 g ai/ha, scale 0 to 100 (0 no effect, 100 complete control)
[4] = 125 g ai/ha, scale 0 to 100 (0 no effect, 100 complete control)
[5] = Postemergence, 62 g ai/ha, scale 0 to 100 (0 no effect, 100 complete control)
[6] = Postemergence, 31 g ai/ha, scale 0 to 100 (0 no effect, 100 complete control)
[7] = Postemergence, 125 g ai/ha, scale 0 to 100 (0 no effect, 100 complete control)
[8] = postemergence, 16 g ai/ha, scale 0 to 100, 0 no effect, 100 complete control

FCc1cccc(Oc2ncc(Cl)cn2)c1-n1cc(I)cn1 [Compound 245]
Plant response rating, Deadnettle (deadnettle; [1]): 0
Plant response rating, Deadnettle (deadnettle; 31 g ai/ha, scale 0-100): 0
Plant response rating, Deadnettle (deadnettle; 62 g ai/ha, scale 0-100): 0
Plant response rating, Deadnettle (deadnettle; 125 g ai/ha, scale 0-100): 15
Plant response rating, Kochia (kochia; [1]): 0
Plant response rating, Kochia (kochia; 31 g ai/ha, scale 0-100): 0
Plant response rating, Kochia (kochia; 62 g ai/ha, scale 0-100): 75
Plant response rating, Kochia (kochia; 125 g ai/ha, scale 0-100): 75
Plant response rating, Russian Thistle (Russian thistle; [1]): 5
Plant response rating, Russian Thistle (Russian thistle; 31 g ai/ha, scale 0 (no effect) to 100 (complete control)): 10
Plant response rating, Russian Thistle (Russian thistle; 125 g ai/ha, scale 0-100): 70
Plant response rating, Canarygrass (canarygrass; 16 g ai/ha, scale 0-100): 0
Plant response rating, Canarygrass (canarygrass; [2]): 20
Plant response rating, Canarygrass (canarygrass; [3]): 25
Plant response rating, Canarygrass (canarygrass; [4]): 35
Plant response rating, Field Poppy (field poppy; 16 g ai/ha, scale 0-100): 90
Plant response rating, Field Poppy (field poppy; [2]): 95
Plant response rating, Field Poppy (field poppy; [3]): 80
Plant response rating, Field Poppy (field poppy; [4]): 100
Plant response rating, Lambsquarters (lambsquarters; 16 g ai/ha, scale 0-100): 65
Plant response rating, Lambsquarters (lambsquarters; [2]): 80
Plant response rating, Lambsquarters (lambsquarters; [3]): 85
Plant response rating, Lambsquarters (lambsquarters; [4]): 95
Plant response rating, Barley, Spring (spring barley; [5]): 20
Plant response rating, Barley, Spring (spring barley; [6]): 20
Plant response rating, Barley, Spring (spring barley; [7]): 30
Plant response rating, Barley, Spring (spring barley; [8]): 10
Plant response rating, Barley, Winter (winter barley; [5]): 20
Plant response rating, Barley, Winter (winter barley; [6]): 15
Plant response rating, Barley, Winter (winter barley; [7]): 20
Plant response rating, Barley, Winter (winter barley; [8]): 25
Plant response rating, Oat, Wild (wild oat; 16 g ai/ha, scale 0-100): 0
Plant response rating, Oat, Wild (wild oat; [2]): 0
Plant response rating, Oat, Wild (wild oat; [3]): 10
Plant response rating, Oat, Wild (wild oat; [4]): 10
